Where two headings read alike, the source gives them in different places.
Legend:
Assay type in all cases: cell-based
[1] = target: T1, AKT1 E17K (Homo sapiens, UniProt P31749, E17K); assay: Live cell AKT1 E17K target engagement by NanoBRET competitive probe displacement; conditions: HEK293 cells transfected with kinase-NanoLuciferase fusion, 2 h at 37° C.
T1 construct: expressed in transfected cells; host or cells: HEK293
Method: (§1) Determining Live Cell AKT1 E17K, AKT1 WT, and AKT2 Target Engagement by NanoBRET Competitive Probe Displacement.
(§2) Live cell target engagement assays were performed as described (Vasta, J. D. et al. Cell Chem Biol 2018, 25(11), 206-214). Briefly, HEK293 cells were transfected with plasmids encoding kinase-NanoLuciferase fusion proteins overnight. Cells were then treated with serial dilutions of compound and an ˜EC50 concentration of fluorescently-tagged ATP-competitive tracer (Promega). After incubation for 2 h at 37° C., luciferase substrate and extracellular luciferase inhibitor were added to all wells, and luminescent intensity at 460 nm and 600 nm were measured on a multimode plate-reader. The ratio of E600/E460 was calculated to give the tracer engagement signal (BRET). IC50 values were calculated by fitting BRET values to a log(inhibitor) vs. response Hill equation.

[2] = target: T2, AKT1 WT (Homo sapiens, UniProt P31749); assay: Live cell AKT1 WT target engagement by NanoBRET competitive probe displacement; conditions: HEK293 cells transfected with kinase-NanoLuciferase fusion, 2 h at 37° C.
T2 construct: expressed in transfected cells; host or cells: HEK293
T2 sequence (P31749 whole entry, the tested form may be a part): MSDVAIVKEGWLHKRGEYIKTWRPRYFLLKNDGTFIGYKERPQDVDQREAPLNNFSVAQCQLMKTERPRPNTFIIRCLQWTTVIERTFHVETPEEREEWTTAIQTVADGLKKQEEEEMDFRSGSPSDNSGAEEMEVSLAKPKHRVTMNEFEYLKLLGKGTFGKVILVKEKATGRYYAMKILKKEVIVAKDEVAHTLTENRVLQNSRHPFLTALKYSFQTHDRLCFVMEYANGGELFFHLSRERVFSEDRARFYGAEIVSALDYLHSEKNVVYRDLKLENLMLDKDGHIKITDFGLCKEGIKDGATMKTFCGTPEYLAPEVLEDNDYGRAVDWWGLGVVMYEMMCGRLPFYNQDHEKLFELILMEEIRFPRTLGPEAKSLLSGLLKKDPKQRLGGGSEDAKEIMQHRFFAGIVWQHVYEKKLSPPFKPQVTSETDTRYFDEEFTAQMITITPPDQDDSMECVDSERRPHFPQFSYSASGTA
Method: as §1, §2

[3] = tested on: LAPC4 prostate cancer cells; assay: Antiproliferative effects in LAPC4 cells (CellTiter Glo); conditions: LAPC4 cells (AKT1 E17K allele), read-out: LAPC4 proliferation IC50
Method: Antiproliferative Effects in LAPC4 Cells.
LAPC4 prostate cancer cells (Klein, K. A. et al. Nat Med 1997, 3, 402-408), which express the AKT1 E17K allele, were grown in IMDM media (Hyclone) supplemented with 12% FBS+1% P/S. To assess compound effects on growth, 1,000 cells/well were seeded in 384 well assay plates, incubated with compound dilutions dissolved in DMSO. After 72 h, intracellular ATP content was assessed with CellTiter Glo reagent (Promega) according to the manufacturer's instructions. IC50 values were calculated by fitting luminescence values to a log(inhibitor) vs. response Hill equation.

T1 sequence (P31749 whole entry E17K, the tested form may be a part): as the sequence (P31749 whole entry, the tested form may be a part) above, with E17K counted along it

| SMILES | IC50 [1] | IC50 [2] | IC50 ([3]; 72 h) | IC50 ([3]; Homo sapiens, LAPC4, 72 h) |
| --- | --- | --- | --- | --- |
| C=CC(=O)N1CCC(N[C@H]2CCc3cc(-n4c(-c5cccnc5N)nc5cc(-n6cccn6)cnc54)ccc32)CC1 [Example 217, 1-(4-{[(1S)-5-[2-(2-aminopyridin-3-yl)-6-(pyrazol-1-yl)imidazo[4,5-b]pyridin-3-yl]-2,3-dihydro-1H-inden-1-yl]amino}piperidin-1-yl)prop-2-en-1-one] | 321 nM | 1870 nM | – | 3470 nM |
| C=CC(=O)N1CCC(N[C@H]2CCc3cc(-n4c(-c5cccnc5N)nc5cc(-c6cccnc6)cnc54)ccc32)CC1 [Example 190, (S)-1-(4-((5-(2-(2-aminopyridin-3-yl)-6-(pyridin-3-yl)-3H-imidazo[4,5-b]pyridin-3-yl)-2,3-dihydro-1H-inden-1-yl)amino)piperidin-1-yl)prop-2-en-1-one] | 99.4 nM | 735 nM | – | 1320 nM |
| C=CC(=O)N1CCC(N[C@H]2CCc3cc(-n4c(-c5cccnc5N)nc5ccc(-n6cccn6)nc54)ccc32)CC1CC#N (single isomer, unassigned) [Example 338, 2-((2*,4*)-1-acryloyl-4-(((S)-5-(2-(2-aminopyridin-3-yl)-5-(1H-pyrazol-1-yl)-3H-imidazo[4,5-b]pyridin-3-yl)-2,3-dihydro-1H-inden-1-yl)amino)piperidin-2-yl)acetonitrile] | 12.3 nM | 108 nM | – | – |
| C=CC(=O)N1C[C@@H]2[C@H](C1)[C@H]2NC1CCc2cc(-n3c(-c4cccnc4N)nc4ccc(-n5cccn5)nc43)ccc21 (single isomer, unassigned) [Example 346, 1-((1R,5S,6s)-6-(((*)-5-(2-(2-aminopyridin-3-yl)-5-(1H-pyrazol-1-yl)-3H-imidazo[4,5-b]pyridin-3-yl)-2,3-dihydro-1H-inden-1-yl)amino)-3-azabicyclo[3.1.0]hexan-3-yl)prop-2-en-1-one] | 444 nM | 2770 nM | – | – |
| C=CC(=O)NC1CCN(C2CCc3cc(-n4c(-c5cccnc5N)nc5ccc(-n6cccn6)nc54)ccc32)CC1 (single isomer, unassigned) [Example 193, N-{1-[(1*)-5-[2-(2-aminopyridin-3-yl)-5-(pyrazol-1-yl)imidazo[4,5-b]pyridin-3-yl]-2,3-dihydro-1H-inden-1-yl]piperidin-4-yl}prop-2-enamide] | 10.2 nM | 71.5 nM | – | 58.4 nM |
| C=CC(=O)N1CCC(N[C@H]2CCc3cc(-n4c(-c5cccnc5N)nc5ccc(C(C)C)nc54)ccc32)CC1 [Example 242, 1-(4-{[(1S)-5-[2-(2-aminopyridin-3-yl)-5-isopropylimidazo[4,5-b]pyridin-3-yl]-2,3-dihydro-1H-inden-1-yl]amino}piperidin-1-yl)prop-2-en-1-one] | 30.4 nM | 1430 nM | – | 756 nM |
| C=CC(=O)N1C[C@@H]2[C@H](C1)[C@H]2NC1CCc2cc(-n3c(-c4cccnc4N)nc4ccc(-n5cccn5)nc43)ccc21 (single isomer, unassigned) [Example 347, 1-((1R,5S,6s)-6-(((*)-5-(2-(2-aminopyridin-3-yl)-5-(1H-pyrazol-1-yl)-3H-imidazo[4,5-b]pyridin-3-yl)-2,3-dihydro-1H-inden-1-yl)amino)-3-azabicyclo[3.1.0]hexan-3-yl)prop-2-en-1-one] | 234 nM | 2210 nM | – | – |
| C=CC(=O)N1CCC(N[C@H]2CCc3cc(-n4c(-c5cccnc5N)nc5ccc(CN6CCOCC6)nc54)ccc32)CC1 [Example 260, 1-(4-{[(1S)-5-[2-(2-aminopyridin-3-yl)-5-(morpholin-4-ylmethyl)imidazo[4,5-b]pyridin-3-yl]-2,3-dihydro-1H-inden-1-yl]amino}piperidin-1-yl)prop-2-en-1-one] | > 1000 nM | – | – | > 10000 nM |

The next compounds have a lower IC50 [1] than those just listed; values first:

| IC50 [1] | IC50 [2] | IC50 ([3]; 72 h) | IC50 ([3]; Homo sapiens, LAPC4, 72 h) | SMILES |
| --- | --- | --- | --- | --- |
| 9.37 nM | 23.5 nM | – | 17.9 nM | C=CC(=O)N1CCC(N[C@@H]2CCc3cc(-n4c(-c5cccnc5N)nc5ccc(-n6cccn6)nc54)ccc3C2)CC1 [Example 295, 1-(4-{[(2R)-6-[2-(2-aminopyridin-3-yl)-5-(pyrazol-1-yl)imidazo[4,5-b]pyridin-3-yl]-1,2,3,4-tetrahydronaphthalen-2-yl]amino}piperidin-1-yl)prop-2-en-1-one] |
| 9.32 nM | 1180 nM | – | 603 nM | C=CC(=O)N1CCC(N[C@@H]2c3ccc(-n4c(-c5ccccc5F)nc5ccc(-n6cccn6)nc54)cc3CC2F)CC1 (single isomer, unassigned) [Example 299, 1-(4-(((1R,2*)-2-fluoro-5-(2-(2-fluorophenyl)-5-(1H-pyrazol-1-yl)-3H-imidazo[4,5-b]pyridin-3-yl)-2,3-dihydro-1H-inden-1-yl)amino)piperidin-1-yl)prop-2-en-1-one] |
| 8.46 nM | 65.5 nM | – | 89 nM | C=CC(=O)N1CCN(CC2CCc3cc(-n4c(-c5cccnc5N)nc5ccc(-n6cccn6)nc54)ccc32)CC1 (stereo not shown) [Example 174, 1-(4-((5-(2-(2-aminopyridin-3-yl)-5-(1H-pyrazol-1-yl)-3H-imidazo[4,5-b]pyridin-3-yl)-2,3-dihydro-1H-inden-1-yl)methyl)piperazin-1-yl)prop-2-en-1-one] |
| 6.9 nM | 36.1 nM | 36.6 nM | – | C=CC(=O)N1CCC(N[C@H]2CCc3cc(-n4c(-c5cccnc5N)nc5ccc(-n6cccn6)nc54)ccc32)C[C@@H]1C(F)F (single isomer, unassigned) [Example 212, 1-((2R,4*)-4-(((S)-5-(2-(2-aminopyridin-3-yl)-5-(1H-pyrazol-1-yl)-3H-imidazo[4,5-b]pyridin-3-yl)-2,3-dihydro-1H-inden-1-yl)amino)-2-(difluoromethyl)piperidin-1-yl)prop-2-en-1-one] |
| 5.65 nM | 35 nM | 56.3 nM | – | C=CC(=O)N1C[C@H]2CCC[C@@H](C1)C2N[C@H]1CCc2cc(-n3c(-c4cccnc4N)nc4ccc(-n5cccn5)nc43)ccc21 (single isomer, unassigned) [Example 188, 1-((1R,5S,9*)-9-(((S)-5-(2-(2-aminopyridin-3-yl)-5-(1H-pyrazol-1-yl)-3H-imidazo[4,5-b]pyridin-3-yl)-2,3-dihydro-1H-inden-1-yl)amino)-3-azabicyclo[3.3.1]nonan-3-yl)prop-2-en-1-one] |
| 4.72 nM | 36.5 nM | – | 26.7 nM | C=CC(=O)N1CCC(N[C@H]2CCc3cc(-n4c(-c5cccnc5N)nc5ccc(-n6cccn6)nc54)ccc32)C[C@H]1C(F)F (single isomer, unassigned) [Example 214, 1-((2S,4*)-4-(((S)-5-(2-(2-aminopyridin-3-yl)-5-(1H-pyrazol-1-yl)-3H-imidazo[4,5-b]pyridin-3-yl)-2,3-dihydro-1H-inden-1-yl)amino)-2-(difluoromethyl)piperidin-1-yl)prop-2-en-1-one] |
| 4.33 nM | 28.5 nM | – | – | C=CC(=O)N1CCC(NC2c3ccc(-n4c(-c5cccnc5N)nc5ccc(-n6ccc(C7CC7)n6)nc54)cc3CC2F)CC1C(F)F (single isomer, unassigned) [Example 333, 1-((2*,4*)-4-(((1*,2*)-5-(2-(2-aminopyridin-3-yl)-5-(3-cyclopropyl-H-pyrazol-1-yl)-3H-imidazo[4,5-b]pyridin-3-yl)-2-fluoro-2,3-dihydro-1H-inden-1-yl)amino)-2-(difluoromethyl)piperidin-1-yl)prop-2-en-1-one] |
